In general, melting point refers to the temperature, or range, at which the solid turns liquid.

Regarding `O=C(O)C(Cc1ccccc1)NC(=O)C(O)c1ccc(OCc2cccc3[nH]ccc23)cc1` (stereo not shown) [Compound 88, 2-{2-hydroxy-2-[4-(1H-indol-4-ylmethoxy)-phenyl]-ethanoylamino}-3-phenyl-propionic acid], the melting point lay within 178 to 181 °C.
The figure for `O=C(N[C@H](Cc1ccccc1)C(=O)O)OCc1ccc(OCCOc2ccccc2)cc1` [Compound 89, (R)-2-[4-(2-phenoxy-ethoxy)-benzyloxycarbonylamino]-3-phenyl-propionic acid] is 130 to 131.3 °C.
As to `O=C(NC(Cc1ccccc1)C(=O)O)OCc1ccc(COCc2ccccc2)cc1` (stereo not shown) [Compound 90, 2-(4-benzyloxymethyl-benzyloxycarbonylamino)-3-phenyl-propionic acid], the melting point lay within 78.3 to 79.9 °C.
In the case of `O=C(N[C@H](Cc1ccccc1)C(=O)O)OCc1cc2cc(-c3cc(F)cc(F)c3)ccc2o1` [Compound 99, (R)-2-[5-(3,5-difluoro-phenyl)-benzofuran-2-ylmethoxycarbonylamino]-3-phenyl-propionic acid] it was 163 to 167 °C.
In the case of `O=C(N[C@H](Cc1ccccc1)C(=O)O)OCc1cc2cc(-c3cccc(F)c3F)ccc2o1` [Compound 100, (R)-2-[5-(2,3-difluoro-phenyl)-benzofuran-2-ylmethoxycarbonylamino]-3-phenyl-propionic acid] it was 159 to 160 °C.
In the case of `O=C(N[C@H](Cc1ccccc1)C(=O)O)OCc1cc2cc(-c3cccc4c3OCO4)ccc2o1` [Compound 102, (R)-2-(5-benzo[1,3]dioxol-4-yl-benzofuran-2-ylmethoxycarbonylamino)-3-phenyl-propionic acid] it was 191 to 192 °C.
On to `O=C(N[C@H](Cc1ccccc1)C(=O)O)OCc1cc2cc(-c3cc(F)ccc3F)ccc2o1` [Compound 103, (R)-2-[5-(2,5-difluoro-phenyl)-benzofuran-2-ylmethoxycarbonylamino]-3-phenyl-propionic acid], for which the melting point was in the range of 89.4 to 92.6 °C.
In the case of `O=C(N[C@H](Cc1ccccc1)C(=O)O)OCc1cc2cc(-c3ccc(F)c(F)c3)ccc2o1` [Compound 104, (R)-2-[5-(3,4-Difluoro-phenyl)-benzofuran-2-ylmethoxycarbonylamino]-3-phenyl-propionic acid] it was 98.9 to 101.7 °C; in that of `O=C(N[C@H](Cc1ccc(Cl)cc1)C(=O)O)OCc1cc2cc(-c3ccccc3)ccc2o1` [Compound 106, (R)-3-(4-chloro-phenyl)-2-(5-phenyl-benzofuran-2-ylmethoxycarbonylamino)-propionic acid], 151 to 157 °C; in that of `O=C(N[C@H](Cc1ccc(Br)cc1)C(=O)O)OCc1cc2cc(-c3ccccc3)ccc2o1` [Compound 107, (R)-3-(4-bromo-phenyl)-2-(5-phenyl-benzofuran-2-ylmethoxycarbonylamino)-propionic acid], 136 to 140 °C.
Compound `O=C(N[C@H](Cc1cccc(F)c1)C(=O)O)OCc1cc2cc(-c3ccccc3)ccc2o1` [Compound 108, (R)-3-(3-fluoro-phenyl)-2-(5-phenyl-benzofuran-2-ylmethoxycarbonylamino)-propionic acid] had a melting point of 141.4 to 142.3 °C.
`O=C(O)CC(NC(=O)OCc1cc2cc(-c3ccccc3)ccc2o1)c1ccccc1` (stereo not shown) [Compound 109, 3-phenyl-3-(5-phenyl-benzofuran-2-ylmethoxycarbonylamino)-propionic acid] registered a melting point of 168 to 169.8 °C.
In the case of `O=C(O)CC(Cc1ccccc1)NC(=O)OCc1cc2cc(-c3ccccc3)ccc2o1` (stereo not shown) [Compound 110, 4-phenyl-3-(5-phenyl-benzofuran-2-ylmethoxycarbonylamino)-butyric acid] it was 168 to 169.8 °C.
In the case of `O=C(N[C@@H](Cc1ccc(F)cc1)C(=O)O)OCc1cc2cc(-c3ccc(F)cc3)ccc2o1` [Compound 113, (S)-3-(4-fluoro-phenyl)-2-[5-(4-fluoro-phenyl)-benzofuran-2-ylmethoxycarbonylamino]-propionic acid], the melting point lay within 148.3 to 157 °C.
The figure for `O=C(N[C@H](Cc1ccc(F)cc1)C(=O)O)OCc1cc2cc(-c3ccccc3F)ccc2o1` [Compound 114, (R)-3-(4-fluoro-phenyl)-2-[5-(2-fluoro-phenyl)-benzofuran-2-ylmethoxycarbonylamino]-propionic acid] is 105.2 to 110.2 °C; for `O=C(N[C@H](Cc1ccc(F)cc1)C(=O)O)OCc1cc2cc(-c3ccccc3Cl)ccc2o1` [Compound 115, (R)-2-[5-(2-chloro-phenyl)-benzofuran-2-ylmethoxycarbonylamino]-3-(4-fluoro-phenyl)-propionic acid] it is 86.7 to 100.1 °C.
Take `O=C(N[C@H](Cc1ccc(F)cc1)C(=O)O)OCc1cc2cc(-c3ccc4c(c3)OCO4)ccc2o1` [Compound 116, (R)-2-(5-benzo[1,3]dioxol-5-yl-benzofuran-2-ylmethoxycarbonylamino)-3-(4-fluoro-phenyl)-propionic acid]: the melting point is 132 to 134.5 °C.
In the case of `CC(C)(C)c1ccc(-c2ccc3oc(COC(=O)N[C@H](Cc4ccc(F)cc4)C(=O)O)cc3c2)cc1` [Compound 117, (R)-2-[5-(4-tert-butyl-phenyl)-benzofuran-2-ylmethoxycarbonylamino]-3-(4-fluoro-phenyl)-propionic acid] it was 114.3 to 124.6 °C; in that of `O=C(N[C@H](Cc1ccc(Cl)cc1)C(=O)O)OCc1cc2cc(-c3ccc(F)cc3)ccc2o1` [Compound 118, (R)-3-(4-chloro-phenyl)-2-[5-(4-fluoro-phenyl)-benzofuran-2-ylmethoxycarbonylamino]-propionic acid], 130 to 154.5 °C; in that of `O=C(N[C@H](Cc1ccc(Br)cc1)C(=O)O)OCc1cc2cc(-c3ccc(F)cc3)ccc2o1` [Compound 119, (R)-3-(4-bromo-phenyl)-2-[5-(4-fluoro-phenyl)-benzofuran-2-ylmethoxycarbonylamino]-propionic acid], 150.6 to 160 °C.
In turn, `O=C(N[C@H](Cc1cccc(F)c1)C(=O)O)OCc1cc2cc(-c3ccc(F)cc3)ccc2o1` [Compound 120, (R)-3-(3-fluoro-phenyl)-2-[5-(4-fluoro-phenyl)-benzofuran-2-ylmethoxycarbonylamino]-propionic acid] gave a melting point of 81.7 to 82.9 °C.
On to `O=C(N[C@H](Cc1ccc(F)cc1)C(=O)O)OCc1cc2cc(-c3cc(F)ccc3F)ccc2o1` [Compound 121, (R)-2-[5-(2,5-difluoro-phenyl)-benzofuran-2-ylmethoxycarbonylamino]-3-(4-fluoro-phenyl)-propionic acid], for which the melting point fell in the range of 98 to 101 °C.
With `O=C(N[C@H](Cc1ccc(F)cc1)C(=O)O)OCc1cc2cc(-c3ccc(F)c(F)c3)ccc2o1` [Compound 122, (R)-2-[5-(3,4-difluoro-phenyl)-benzofuran-2-ylmethoxycarbonylamino]-3-(4-fluoro-phenyl)-propionic acid], the melting point was in the range of 97 to 99.1 °C.
In the case of `O=C(N[C@H](Cc1ccc(F)cc1)C(=O)O)OCc1cc2cc(-c3cc(F)cc(F)c3)ccc2o1` [Compound 123, (R)-2-[5-(3,5-difluoro-phenyl)-benzofuran-2-ylmethoxycarbonylamino]-3-(4-fluoro-phenyl)-propionic acid] it was 174 to 175 °C.
The compound `O=C(N[C@H](Cc1ccccc1)C(=O)O)OCc1cc2cc(-c3cccnc3)ccc2o1` [Compound 124, (R)-3-phenyl-2-(5-pyridin-3-yl-benzofuran-2-ylmethoxycarbonylamino)-propionic acid] yielded a melting point of 143 to 145.7 °C.
In the case of `Cc1ccc(-c2cc(COC(=O)NC(Cc3ccccc3)C(=O)O)co2)cc1` (stereo not shown) [Compound 127, 3-phenyl-2-(5-p-tolyl-furan-3-ylmethoxycarbonylamino)-propionic acid] it was 67.7 to 68.2 °C.
In the case of `O=C(N[C@@H](Cc1ccccc1)C(=O)O)OCCc1cc2cc(-c3ccccc3)ccc2o1` [Compound 128, (S)-3-phenyl-2-[2-(5-phenyl-benzofuran-2-yl)-ethoxycarbonylamino]-propionic acid] it was 170.9 to 171.9 °C; in that of `O=C(N[C@H](Cc1ccccc1)C(=O)O)OCc1ccc2[nH]c(-c3ccccc3)nc2c1` [Compound 129, (R)-3-Phenyl-2-(2-phenyl-1H-benzoimidazol-5-ylmethoxycarbonylamino)-propionic acid], 165 to 215 °C.
The figure for `Cn1c(-c2ccccc2)nc2cc(COC(=O)N[C@H](Cc3ccccc3)C(=O)O)ccc21` [Compound 130, (R)-2-(1-Methyl-2-phenyl-1H-benzoimidazol-5-ylmethoxycarbonylamino)-3-phenyl-propionic acid] is 176 to 177 °C.
On to `O=C(N[C@H](Cc1ccccc1)C(=O)O)OCc1ccc2nc(-c3ccccc3)ccc2c1` [Compound 131, (R)-3-phenyl-2-(2-phenyl-quinolin-6-ylmethoxycarbonylamino)-propionic acid], for which the melting point was in the range of 190 to 191 °C.
The figure for `O=C(N[C@H](Cc1ccccc1)C(=O)O)OCc1ccc2[nH]c(-c3ccccc3)cc2c1` [Compound 132, (R)-3-phenyl-2-(2-phenyl-1H-indol-5-ylmethoxycarbonylamino)-propionic acid] is 176 to 177 °C; for `O=C(NC(Cc1ccccc1)C(=O)O)OCc1ccc(/C=C/c2ccccc2)cc1` (stereo not shown) [Compound 133, 3-phenyl-2-[4-((E)-styryl)-benzyloxycarbonylamino]-propionic acid] it is 165 to 168.5 °C; for `O=C(N[C@H](Cc1ccccc1)C(=O)O)OCc1cc2cc(Cc3ccccc3)ccc2o1` [Compound 134, (R)-2-(5-benzyl-benzofuran-2-ylmethoxycarbonylamino)-3-phenyl-propionic acid] it is 159.4 to 160.1 °C.
The figure for `O=C(N[C@H](Cc1ccccc1)C(=O)O)OCc1cc2cc(C(=O)c3ccccc3)ccc2o1` [Compound 136, (R)-3-phenyl-2-[5-(1-phenyl-methanoyl)-benzofuran-2-ylmethoxycarbonylamino]-propionic acid] is 136.3 to 138.6 °C.

Values taken from patent publication US7056903B2, “Carboxylic acid derivatives as IP antagonists” (Syntex (U.S.A.) LLC, priority 2000, dated 2006).
